Reference: US20100239669A1, “Combinations of statins and anti-obesity agent” (Scidose LLC, priority 2007, published 2010)

Experiment: Patient on atorvastatin with orlistat added (co-therapy)
Format: in vivo, human
Method: A patient on atorvastatin 80 mg once daily is found to still be in need of reducing weight, triglyceride, and cholesterol levels further. […] The patient is maintained on this regimen for 2 months and thereafter the atorvastatin dosage is reduced to 60 mg once daily at which the reductions previously obtained are maintained. The patient is then switched to a fixed combination dosage form of 120 mg orlistat and 60 mg atorvastatin once daily. A patient on atorvastatin 10 mg once daily is found to be in need of weight reduction and triglyceride reduction, although cholesterol levels are adequately maintained by the atorvastatin. Orlistat 120 mg once daily is added to the regimen and each of weight, triglycerides and cholesterol drop. […] The patient is then changed to a fixed combination of 120 mg orlistat and 5 mg of atorvastatin.

Structure (SMILES): CCCCCCCCCCC[C@@H](C[C@@H]1OC(=O)[C@H]1CCCCCC)OC(=O)[C@H](CC(C)C)NC=O [orlistat, N-formyl-L-leucine ester of (3S,4S)-3-hexyl-4-[(2S)-2-hydroxytridecyl]-2-oxetanone]
- weight, serum triglycerides, and cholesterol (Example 1: 120 mg once daily orlistat added to atorvastatin 80 mg once daily): begins to lower
- reductions previously obtained (weight, triglycerides, cholesterol) (Example 1: after 2 months atorvastatin reduced to 60 mg once daily, orlistat 120 mg once daily): maintained
- lowered weight, triglycerides, and cholesterol levels (Example 2: after 6 weeks, 120 mg orlistat once daily and 5 mg atorvastatin once daily): surprisingly maintains
- weight, triglycerides and cholesterol (Example 2: orlistat 120 mg once daily added to atorvastatin 10 mg once daily): drop
